These are literature values, as cited in patent US8633181B2, “Treatment of cutaneous hemangioma” (Rutgers, The State University of New Jersey, priority 2009, dated 2014).

The data set deals with severe hemangioma of infants. Particulars: systemic propranolol.

In the case of `CC(C)NCC(O)COc1cccc2ccccc12` (stereo not shown) [propranolol], the “time to significant shrinkage of the hemangioma after initiation” value is “about 24 hours”.
